Test systems include A498; CCRF-CEM; EKVX; HCC 2998; HL-60; HT-29; K562; LOX IMVI; MOLT-4; NCI-H226; NCI-H460; RPMI-8226; RXF 393; SF-268; SF-539; SK-MEL-2; SNB-19; TK-10; U-251; UO-31.
What all share (assay): DTP human tumour cell line panel, 48 h

Structures are written as SMILES.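 Protocol summary: plate cells (96-well), add compound at 5 concentrations, incubate 48 h, interpolate endpoints linearly. GI50: concentration for 50% inhibition of growth.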 Activity calls are given as the source filed them. Cut-off read from the data, not from the text of the source: active = GI50 up to about 1.1 µM and inactive = higher. Starred links: 1 amine or outer side, 2 acyl side, 3 side chain; linkers in the order of their positions; H or OH if unused. Positions of bridges follow the written chain, without caps; N, C: chain ends. Non-standard residues stand in square brackets, D forms with d. Residues, ends and D or L forms follow the SMILES beside them. ξ: configuration not given here. X11 = CCC(C)C(N[*:1])C(O)CC(=O)O[C@H](C(=O)C(C)C(=O)[*:2])C(C)C; X10 = O=C([C@@H]1CC(O)CN1[*:1])[*:2]; NMeY = CN[C@@H](Cc1ccc(O)cc1)C(=O)O; ξNMeL = CNC(CC(C)C)C(=O)O; ξT = CC(O)C(N)C(=O)O Some results are limits rather than exact numbers.

As to `CC(=O)c1cccc(NC(=O)C(=O)C(C(=O)c2ccccc2F)C2OC(=O)c3ccccc32)c1` (stereo not given), the GI50 in the assay with A498 was 91.6 µM (inactive); in the assay with CCRF-CEM it was 14.8 µM (inactive); with EKVX it was 43.4 µM (inactive); with HCC 2998, 24.1 µM (inactive); with HL-60, 24 µM (inactive); in the assay with HT-29 it was 35.9 µM (inactive). Further, the GI50 with K562 was 32.1 µM (inactive); in the assay with LOX IMVI, 19.5 µM (inactive); with MOLT-4, 22.8 µM (inactive); in the assay on NCI-H226 it was 19.1 µM (inactive); in the assay on NCI-H460 it was 30.9 µM (inactive); in the assay with RPMI-8226, 20.3 µM (inactive). Further, the GI50 with RXF 393 was 28.1 µM (inactive); with SF-268, 34.3 µM (inactive); in the assay with SF-539 it was > 10 µM (inactive); in the assay with SK-MEL-2, 29.8 µM (inactive); in the assay on SNB-19, 32.1 µM (inactive); in the assay with TK-10, > 100 µM (inactive). In addition, the GI50 in the assay on U-251 was 19.8 µM (inactive); in the assay with UO-31, 34.4 µM (inactive).

In the case of `CCOC(=O)c1nc2ccccc2n(CC)c1=O`, the GI50 with A498, in the assay on CCRF-CEM, with EKVX, with HCC 2998, with HL-60 and in the assay with HT-29 was > 100 µM (inactive) each time. Besides, the GI50 in the assay with K562 is > 100 µM (inactive); in the assay on LOX IMVI, > 100 µM (inactive); in the assay on MOLT-4 it was > 100 µM (inactive); with NCI-H226 it was > 100 µM (inactive); with NCI-H460, 81.7 µM (inactive); with RPMI-8226, > 100 µM (inactive). Also, the GI50 in the assay with RXF 393, in the assay with SF-268, in the assay with SF-539, with SK-MEL-2, in the assay with SNB-19 and in the assay on TK-10 was > 100 µM (inactive) each time. Moreover, the GI50 in the assay on U-251 and with UO-31 was > 100 µM (inactive) throughout.

Regarding `CCC(C)C1NC(=O)C(NC(=O)C(CC(C)C)N(C)C(=O)[C@@H]2CC(O)CN2)C(C)OC(=O)[C@H](Cc2ccc(OC)cc2)N(C)C(=O)[C@@H]2CCCN2C(=O)[C@H](CC(C)C)NC(=O)C(C)C(=O)[C@H](C(C)C)OC(=O)CC1O` (stereo not given in full) (H-[X10][ξNMeL][ξT][X11]LP[NMeY](Me); ester 3-C), the 50% growth inhibitory concentration (GI50) in the assay with A498 was 0.0548 µM (active); in the assay on CCRF-CEM, 0.00233 µM (active); in the assay on EKVX, 0.01 µM (active); in the assay on HCC 2998, 0.00469 µM (active); with HL-60, 0.0114 µM (active); in the assay with HT-29 it was 0.00445 µM (active). In addition, the GI50 was 0.00394 µM (active) in the assay on K562; 0.00311 µM (active) with LOX IMVI; 0.00161 µM (active) with MOLT-4; 0.00182 µM (active) in the assay on NCI-H226; 0.00491 µM (active) with NCI-H460; 0.0082 µM (active) in the assay with RPMI-8226. Besides, the GI50 was 0.0115 µM (active) in the assay with RXF 393; 0.011 µM (active) with SF-268; 0.00157 µM (active) in the assay on SF-539; 0.00399 µM (active) in the assay on SK-MEL-2; 0.00819 µM (active) with SNB-19; 0.164 µM (active) in the assay with TK-10. Besides, the figures for the concentration for 50% growth inhibition (GI50) with U-251 and in the assay on UO-31 were 0.00175 µM (active) and 0.233 µM (active), respectively.

As to `O=C1/C(=C/c2ccccc2)CCC/C1=C\c1ccccc1` [2,6-DIBENZYLIDENECYCLOHEXANONE], the GI50 was 16.1 µM (inactive) in the assay with A498; 4.12 µM (inactive) in the assay on CCRF-CEM; 18.3 µM (inactive) in the assay on EKVX; 12.2 µM (inactive) in the assay on HCC 2998; 2.8 µM (inactive) in the assay on HL-60; 5.87 µM (inactive) in the assay on HT-29. Moreover, the GI50 in the assay with K562 is 3.58 µM (inactive); in the assay with LOX IMVI it was 2.21 µM (inactive); in the assay on MOLT-4, 3.95 µM (inactive); in the assay with NCI-H226, 18.7 µM (inactive); in the assay with NCI-H460 it was 14.9 µM (inactive); with RPMI-8226, 1.6 µM (inactive). Also, the GI50 with RXF 393 is 17.8 µM (inactive); in the assay with SF-268, 11 µM (inactive); in the assay with SF-539 it was 16.6 µM (inactive); with SK-MEL-2, 16.7 µM (inactive); in the assay with SNB-19 it was 14.6 µM (inactive); with TK-10 it was 17.8 µM (inactive). In addition, the GI50 in the assay with U-251 is 5.82 µM (inactive); in the assay on UO-31, 18.2 µM (inactive).

Turning to `C[C@]12CC[C@H](O[C@@H]3O[C@H](CO[C@@H]4O[C@H](CO)[C@@H](O)[C@H](O)[C@H]4O)[C@@H](O)[C@H](O)[C@H]3O)C[C@@H]1CC[C@@H]1[C@@H]2CC[C@]2(C)[C@@H](C3=CC(=O)OC3)CC[C@]12O` [UZARIN], the GI50 was 24.9 µM (inactive) in the assay on A498; 4.07 µM (inactive) with CCRF-CEM; 17.7 µM (inactive) with EKVX; 21.9 µM (inactive) in the assay on HCC 2998; 20.2 µM (inactive) with HL-60; 35.8 µM (inactive) in the assay with HT-29. In addition, the GI50 with K562 is 24.2 µM (inactive); in the assay with LOX IMVI it was 22.1 µM (inactive); in the assay with MOLT-4, 4.02 µM (inactive); with NCI-H226, 42.2 µM (inactive); in the assay with NCI-H460, 7.29 µM (inactive); in the assay on RPMI-8226 it was 43.4 µM (inactive). Further, the GI50 in the assay on RXF 393 was 12.5 µM (inactive); in the assay on SF-268, 11 µM (inactive); with SF-539 it was 15.5 µM (inactive); with SK-MEL-2, 36.4 µM (inactive); in the assay on SNB-19, 38.9 µM (inactive); with TK-10, 18.8 µM (inactive). Moreover, the GI50 was 39.7 µM (inactive) in the assay with U-251 and 25.1 µM (inactive) with UO-31.

The term GI50 denotes the concentration that inhibits growth by half.

The values are drawn from ChEMBL document CHEMBL1201862, “PubChem BioAssay data set” (2004).
